Measurements: patent US20200271654A1, “Quantifying MGMT Protein For Optimal Cancer Therapy” (Expression Pathology, Inc., priority 2017, published 2020)

Test system: advanced colorectal cancer (CRC)
Assay: Survival of advanced colorectal cancer patients treated with temozolomide, stratified by tumor MGMT protein level (SRM mass spectrometry)
Type: in vivo
Settings: for median progression-free survival (PFS): treated with temozolomide
Description: 24 patients from Fondazione IRCCS Istituto Nazionale dei TumoriVia Venezian, Milan, Italy, were identified with advanced colorectal cancer (CRC). Tumors were surgically removed prior to treatment and archived as formalin-fixed, paraffin-embedded (FFPE) tissue and all were histologically colorectal cancer. All 24 patients were subsequently treated with temozolomide.
Archived formalin-fixed, paraffin-embedded tissue sections were obtained from patients with advanced CRC treated with temozolomide (n=24). A board-certified pathologist marked the tumor areas. Based on the markups, tumor cells were laser microdissected and solubilized to tryptic peptides using the Liquid Tissue process. In each liquefied sample, multiple protein biomarkers including MGMT were quantified by selected reaction monitoring (SRM) mass spectrometry (MS). A mixture of stable isotope-labeled heavy peptides including the MGMT fragment peptide TTLDSPLGK was added prior to MS analysis. Each sample was analyzed in triplicate. […] The Mantel-Cox log-rank and Gehan-Breslow-Wilcoxon tests were used for survival comparisons.

Cn1nnc2c(C(N)=O)ncn2c1=O [temozolomide]
median progression-free survival (PFS) (CRC patients with MGMT levels above cutoff of 200 amol/μg): 1.6 months | median progression-free survival (PFS) (CRC patients with MGMT protein levels below cutoff of 200 amol/μg (n=11), p=0.0611 vs above cutoff): 4.3 months | ratio of median progression-free survival, MGMT below cutoff vs above cutoff (cutoff 200 amol/μg, temozolomide-treated CRC patients): approximately 2.5 times
